Like-named read-outs stand apart in the source and are kept apart here.
Columns and labels:
[1] = system: isolated trachea of guinea pig; assay: relaxation of isolated trachea of guinea pig precontracted with methacoline; conditions: Cavia porcellus, read-out: IC50, relaxing the contraction of the isolated trachea of guinea pig precontracted with methacoline
Excerpt: The compounds of the invention have been pharmacologically studied by means of in vitro and in vivo tests, suitable to evidence the anti-bronchospastic properties of the compounds. […] To this action a remarkable anti-bronchospastic action in the tests in vivo corresponded after administration by i.v. and inhalatory route.

[2] = system: bronchospasm induced by acetyl choline aerosol in guinea pig; assay: inhibition of bronchospasm induced by acetyl choline aerosol in awake guinea pig; format: in vivo; conditions: for ED50: Cavia porcellus, iv; for ED50, inhibition of bronchospasm induced by acetyl choline aerosol: i.v.
[3] = system: platelet aggregation (rabbit prp) from collagen; assay: platelet aggregation (rabbit prp) from collagen; format: cell-based; conditions: Oryctolagus cuniculus
[4] = acute toxicity in the mouse; conditions: in vivo; for LD50: approximate value; for selectivity ratio: ratio os/i.p., read-out: LD50 os/i.p.
[5] = system: PAF-acether induced bronchospasm in guinea pig; assay: inhibition of PAF-acether induced bronchospasm in anestetized guinea pig; format: in vivo; conditions: for inhibition % of PAF-acether induced bronchospasm: guinea pig, i.v.; for inhibition of PAF-acether induced bronchospasm (in words): up to 3 μmol/kg
[6] = system: platelet aggregation (rabbit prp) from arachidonic acid; assay: platelet aggregation (rabbit prp) from arachidonic acid; format: cell-based; conditions: Oryctolagus cuniculus
[7] = system: platelet aggregation (rabbit prp) from PAF acether; assay: platelet aggregation (rabbit prp) from PAF-acether; format: cell-based; conditions: Oryctolagus cuniculus
[8] = ip, read-out: approximate value of LD50, i.p.
[9] = po, os, read-out: approximate value of LD50, os

SMILES	IC50 [1] [nM]	ED50 [2] [µmol/kg]	other results
CC(C)N1[C@@H]2CC[C@H]1C[C@@H](OC(=O)CC1=C(c3ccccc3)CCCC1)C2 [Example 7, Endo-3-(2-phenyl-1-cyclohexen-1-acetoxy)-8-sin-isoproyl-8-azabicyclo-[3.2.1.]-octane]	30000	> 7.4	–
CCC[N+]1(CC(C)C)[C@@H]2CC[C@H]1C[C@@H](OC(=O)C1CCCC=C1c1ccccc1)C2 (some centres unmarked) [1st formula, 3rd R, 6th R']	1200	> 5.6	–
CC(C)[N+]1(C)[C@@H]2CC[C@H]1C[C@@H](OC(=O)CC1=C(c3ccccc3)CCCC1)C2 (stereo partly drawn) [Example 31, Endo-3-(2-phenyl-1-cyclohexen-1-acetoxy)-8-sin-isopropyl-8-methyl-8-azoniabicyclo-[3.2.1.]-octane iodide]	27	–	–
CCCC[N+]1(CC)[C@@H]2CC[C@H]1C[C@@H](OC(=O)C1CCCC=C1c1ccccc1)C2 (some centres unmarked) [1st formula, 1st R, 7th R']	69	–	–
CC(C)[N+]1(C)[C@@H]2CC[C@H]1C[C@@H](OC(=O)CC1=C(c3ccccc3)CCCC1)C2 (some centres unmarked) [2nd formula, 1st R, 4th R']	–	> 0.6	–
CCCC[N+]1(CCC)[C@@H]2CC[C@H]1C[C@@H](OC(=O)C1CCCC=C1c1ccccc1)C2 (some centres unmarked) [1st formula, 3rd R, 7th R']	190	> 5.6	–
CC[N+]1(C(C)C)[C@@H]2CC[C@H]1C[C@@H](OC(=O)C1CCCC=C1c1ccccc1)C2 (some centres unmarked) [1st formula, 1st R, 4th R']	–	–	ED50, inhibition of bronchospasm induced by acetyl choline aerosol [2]: ~ 5900 nmol kg^-1
CC(C)N1[C@@H]2CC[C@H]1C[C@@H](OC(=O)C1CCCC=C1c1ccccc1)C2 (stereo partly drawn) [Example 1, Endo-3-(2-phenyl-2-cyclohexen-1-carbonyloxy)-8-sin-isopropyl-8-azabicyclo-[3.2.1]-octane]	350	~1.5	–
CCC[N+]1(CCC)[C@@H]2CC[C@H]1C[C@@H](OC(=O)C1CCCC=C1c1ccccc1)C2 (some centres unmarked) [1st formula, 3rd R, 5th R']	380	–	–
CC[N+]1(C)[C@@H]2CC[C@H]1C[C@@H](OC(=O)C1CCCC=C1c1ccccc1)C2 (stereo partly drawn) [Example 20, Endo-3-(2-phenyl-2-cyclohexen-1-carbonyloxy)-8-sin-ethyl-8-methyl-8-azoniabicyclo-[3.2.1.]-octane iodide]	0.95	–	IC50 [3]: > 100000 nM; LD50 [4, 8]: 126 mg/kg; selectivity ratio ([4]; ip): 2.8; LD50 [4, 9]: 350 mg/kg; inhibition % of PAF-acether induced bronchospasm ([5]; 0.3 μmol kg^-1): 3 ± 11%; inhibition % of PAF-acether induced bronchospasm ([5]; 3 μmol kg^-1): 36 ± 17%; IC50 [6]: > 100000 nM; IC50 [7]: 7700 nM
CC[N+]1(CC(C)C)[C@@H]2CC[C@H]1C[C@@H](OC(=O)C1CCCC=C1c1ccccc1)C2 (some centres unmarked) [1st formula, 1st R, 6th R']	54	> 5.7	–
CCC[N+]1(C)[C@@H]2CC[C@H]1C[C@@H](OC(=O)CC1=C(c3ccccc3)CCCC1)C2 (some centres unmarked) [2nd formula, 1st R, 5th R']	240	> 0.6	–
CCC[N+]1(C(C)C)[C@@H]2CC[C@H]1C[C@@H](OC(=O)CC1=C(c3ccccc3)CCCC1)C2 (some centres unmarked) [2nd formula, 2nd R, 5th R']	8500	> 5.6	–
CC(C)[N+]1(C(C)C)[C@@H]2CC[C@H]1C[C@@H](OC(=O)C1CCCC=C1c1ccccc1)C2 (some centres unmarked) [1st formula, 2nd R, 4th R']	46	2.5	–
CCC[N+]1(C)[C@@H]2CC[C@H]1C[C@@H](OC(=O)C1CCCC=C1c1ccccc1)C2 (stereo partly drawn) [Example 25, Endo-3-(2-phenyl-2-cyclohexen-1-carbonyloxy)-8-sin-propyl-8-methyl-8-azoniabicyclo-[3.2.1.]-octane iodide]	3.3	–	LD50 [4, 8]: 124 mg/kg; selectivity ratio ([4]; ip): 4.8; LD50 [4, 9]: 600 mg/kg
C[N+]1(C)[C@@H]2CC[C@H]1C[C@@H](OC(=O)CC1=C(c3ccccc3)CCCC1)C2 [Example 8, Endo-3-(2-phenyl-1-cyclohexen-1-acetoxy)-8,8-dimethyl-8-azoniabicyclo-[3.2.1.]-octane iodide]	1.1	–	LD50 [4, 8]: 45 mg/kg; selectivity ratio ([4]; ip): 18; LD50 [4, 9]: 800 mg/kg

SMILES	IC50 [1] [nM]	ED50 [2] [µmol/kg]	other results
CN1[C@@H]2CC[C@H]1C[C@@H](OC(=O)C(CO)c1ccccc1)C2 (some centres unmarked) [Atropine sulphate, atropine sulphate, reference compound]	6.9	0.068	inhibition of PAF-acether induced bronchospasm (in words) ([5]; anestetized guinea pig): fully inactive; inhibition % of PAF-acether induced bronchospasm ([5]; 3 μmol kg^-1): 0%; ED50, inhibition of bronchospasm induced by acetyl choline aerosol [2]: 68 nmol/kg
CC[N+]1(C(C)C)[C@@H]2CC[C@H]1C[C@@H](OC(=O)CC1=C(c3ccccc3)CCCC1)C2 (stereo partly drawn) [Example 32, Endo-3-(2-phenyl-1-cyclohexen-1-acetoxy)-8-sin-isopropyl-8-ethyl-8-azoniabicyclo-[3.2.1.]-octane iodide]	9000	> 5.7	–
CCC[N+]1(CC)[C@@H]2CC[C@H]1C[C@@H](OC(=O)C1CCCC=C1c1ccccc1)C2 (stereo partly drawn) [Example 26, Endo-3-(2-phenyl-2-cyclohexen-1-carbonyloxy)-8-sin-propyl-8-ethyl-8-azoniabicyclo-[3.2.1.]-octane iodide]	–	0.228	–
CCCC[N+]1(C(C)C)[C@@H]2CC[C@H]1C[C@@H](OC(=O)C1CCCC=C1c1ccccc1)C2 (some centres unmarked) [1st formula, 2nd R, 7th R']	45	0.99	–
CCC[N+]1(C(C)C)[C@@H]2CC[C@H]1C[C@@H](OC(=O)C1CCCC=C1c1ccccc1)C2 (some centres unmarked) [1st formula, 3rd R, 4th R']	–	> 5.7	–
CC(C)C[N+]1(C(C)C)[C@@H]2CC[C@H]1C[C@@H](OC(=O)C1CCCC=C1c1ccccc1)C2 (some centres unmarked) [1st formula, 2nd R, 6th R']	80	1.08	–
CC[N+]1(C(C)C)[C@@H]2CC[C@H]1C[C@@H](OC(=O)C1CCCC=C1c1ccccc1)C2 (stereo partly drawn) [Example 14, Endo-3-(2-phenyl-2-cyclohexen-1-carbonyloxy)-8-sin-isopropyl-8-ethyl-8-azoniabicylo-[3.2.1.]-octane iodide]	–	–	IC50 [3]: > 100000 nM; LD50 [4, 8]: 91 mg/kg; selectivity ratio ([4]; ip): 3.3; LD50 [4, 9]: 300 mg/kg; inhibition % of PAF-acether induced bronchospasm ([5]; 0.3 μmol kg^-1): 0%; inhibition % of PAF-acether induced bronchospasm ([5]; 3 μmol kg^-1): 42 ± 14%; ED50, inhibition of bronchospasm induced by acetyl choline aerosol ([2]; listed as 1st formula, 2nd R, R'=CH2CH3): 22 nmol/kg; IC50 [6]: > 100000 nM; IC50 [7]: 29900 nM
CCCN1[C@@H]2CC[C@H]1C[C@@H](OC(=O)C1CCCC=C1c1ccccc1)C2 (stereo partly drawn) [Example 5, Endo-3-(2-phenyl-2-cyclohexen-1-carbonyloxy)-8-sin-propyl-8-azabicyclo-[3.2.1.]-octane]	1700	> 7.7	–
CC[N+]1(CC)[C@@H]2CC[C@H]1C[C@@H](OC(=O)C1CCCC=C1c1ccccc1)C2 (stereo partly drawn) [Example 21, Endo-3-(2-phenyl-2-cyclohexene-1-carbonyloxy)-8,8-di-ethyl-azoniabicyclo-[3.2.1.]-octane iodide]	0.03	0.029	IC50 [3]: > 100000 nM; LD50 [4, 8]: 107 mg/kg; selectivity ratio ([4]; ip): 7.5; LD50 [4, 9]: 800 mg/kg; ED50 ([5]; Cavia porcellus, anestetized guinea pig): 0.8 µmol/kg; inhibition % of PAF-acether induced bronchospasm ([5]; 0.3 μmol kg^-1): 43 ± 16%; inhibition % of PAF-acether induced bronchospasm ([5]; 3 μmol kg^-1): 64 ± 16%; IC50 [6]: > 100000 nM; IC50 [7]: 2400 nM
CC(C)[N+]1(C)[C@@H]2CC[C@H]1C[C@@H](OC(=O)C(CO)c1ccccc1)C2 (some centres unmarked) [ipratropium bromide, reference compound]	2	0.012	inhibition of PAF-acether induced bronchospasm (in words) ([5]; anestetized guinea pig): fully inactive; inhibition % of PAF-acether induced bronchospasm ([5]; 3 μmol kg^-1): 7 ± 10%; ED50, inhibition of bronchospasm induced by acetyl choline aerosol [2]: 12 nmol/kg
CCN1[C@@H]2CC[C@H]1C[C@@H](OC(=O)C1CCCC=C1c1ccccc1)C2 (stereo partly drawn) [Example 4, Endo-3-(2-phenyl-2-cyclohexen-1-carbonyloxy)-8-sin-ethyl-8-azabicyclo-[3.2.1.]-octane]	280	6.12	–
CC[N+]1(C)[C@@H]2CC[C@H]1C[C@@H](OC(=O)CC1=C(c3ccccc3)CCCC1)C2 (stereo partly drawn) [Example 9, Endo-3-(2-phenyl-1-cyclohexen-1-acetoxy)-8-sin-methyl-8-ethyl-8-azoniabicyclo-[3.2.1.]-octane iodide]	32	~0.4	–
CC(C)[N+]1(C)[C@@H]2CC[C@H]1C[C@@H](OC(=O)C1CCCC=C1c1ccccc1)C2 (stereo partly drawn) [Example 13, Endo-3-(2-phenyl-2-cyclohexen-1-carbonyloxy)-8-sin-isopropyl-8-methyl-8-azoniabicyclo-[3.2.1.]-octane iodide]	0.67	–	IC50 [3]: > 100000 nM; LD50 [4, 8]: 123 mg/kg; selectivity ratio ([4]; ip): 4.1; LD50 [4, 9]: 500 mg/kg; inhibition % of PAF-acether induced bronchospasm ([5]; 0.3 μmol kg^-1): 0%; inhibition % of PAF-acether induced bronchospasm ([5]; 3 μmol kg^-1): 28 ± 13%; IC50 [6]: > 100000 nM; IC50 [7]: 39100 nM
CN1[C@@H]2CC[C@H]1C[C@@H](OC(=O)CC1=C(c3ccccc3)CCCC1)C2 [Example 6, Endo-3-(2-phenyl-1-cyclohexen-1-acetoxy)-8-sin-methyl-8-azabicyclo-[3.2.1.]-octane]	4200	~15	–
CC(C)[N+]1(C(C)C)[C@@H]2CC[C@H]1C[C@@H](OC(=O)CC1=C(c3ccccc3)CCCC1)C2 [2nd formula, 2nd R, 4th R']	67000	> 5.6	–

Source: patent publication US4780467A, “Esters of N-alkyl-nortropines and their quaternary derivatives having anti-bronchospastic activity, and pharmaceutical compositions containing them” (Laboratori Guidotti Spa, priority 1986, dated 1988)
